Measurements: patent publication US9540702B2, “Stabilization of enzymes with stable coenzymes” (Roche Diabetes Care, Inc., priority 2009, dated 2017)

Assays:
[1] = target: glucose dehydrogenase/NAD system (Bacillus subtilis, UniProt P12310); test: Photometric glucose determination with test elements containing GlucDH, NAD, mediator and 2,18-phosphomolybdic acid; details: glucose in the region of 800 mg/dl; test elements stored 11 weeks at room temperature
Description: Various test systems which each contained glucose dehydrogenase, NAD, a mediator and, where appropriate, an optical indicator, were measured photometrically and electrochemically in order to determine glucose.
For photometric measurements four test elements which had each been stored for 11 weeks at room temperature and contained 2,18-phosphomolybdic acid in addition to glucose dehydrogenase, NAD and a mediator, were initially investigated at various glucose concentrations.
The kinetics of the conversion of glucose using the system glucose dehydrogenase, NAD, 1-(3-carboxypropoxy)-5-ethylphenazinium-trifluoromethane sulfonate and 2,18-phosphomolybdic acid at glucose concentrations in the range from 0 to 800 mg/dl is shown in FIG. 14.

[2] = target: T1, alcohol dehydrogenase (ADH) (Saccharomyces cerevisiae, UniProt P00330); test: Stability of alcohol dehydrogenase with coenzyme in a liquid phase at 35° C.; format: biochemical, yeast; details: 65 hours at 35° C., 5 mg/ml ADH, 50 mg/ml coenzyme, pH 9.0
T1 sequence (P00330 1-348): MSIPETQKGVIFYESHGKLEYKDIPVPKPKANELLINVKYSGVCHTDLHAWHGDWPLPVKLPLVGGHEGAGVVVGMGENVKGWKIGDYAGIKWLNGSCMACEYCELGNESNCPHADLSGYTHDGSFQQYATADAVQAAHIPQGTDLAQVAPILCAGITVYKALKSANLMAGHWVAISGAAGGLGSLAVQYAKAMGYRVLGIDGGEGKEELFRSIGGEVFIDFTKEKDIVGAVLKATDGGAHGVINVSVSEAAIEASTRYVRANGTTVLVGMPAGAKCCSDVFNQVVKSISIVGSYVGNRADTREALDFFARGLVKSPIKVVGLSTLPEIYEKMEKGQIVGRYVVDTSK
Description: FIG. 12 is a graphical illustration of the stability of alcohol dehydrogenase from yeast in the presence of NAD or cNAD in a liquid phase at 35° C. for a period of 65 hours with test conditions of 5 mg/ml ADH; 50 mg/ml NAD or cNAD; buffer: 75 mM Na4P2O7; glycine, pH 9.0; temperature 35° C.
(§1) cNAD or NAD was added to a detection solution containing alcohol dehydrogenase. These mixtures were stored at 2-8° C. and at 35° C. Subsequently, the stability of alcohol dehydrogenase (ADH) was checked at regular intervals and the residual activity of the enzyme was determined.
The residual activity of alcohol dehydrogenase in the presence of the native coenzyme NAD is at about 6% after 65 hours at 35° C., whereas the residual activity of the enzyme in the presence of the artificial coenzyme cNAD is still at about 60%.

[3] = target: Glucose dehydrogenase mutant2 (Bacillus subtilis, UniProt P12310, A229V/A236S/E170K/Q252L); test: Differential scanning calorimetry (DSC) of coenzyme binding; details: Tris buffer, pH 8.0; versus absence of NAD (79.1° C.)
[4] = target: T1, alcohol dehydrogenase (ADH); test: Storage of alcohol dehydrogenase detection solution with NAD or cNAD (Tables 1 and 2); format: biochemical, yeast; details: 16 mmol/l coenzyme
Description: as §1
If alcohol dehydrogenase is stored together with native NAD or with cNAD for several months at 2-8° C. in a refrigerator, then one observes in the case of […] a considerable decrease in enzyme activity over the entire storage period. Whereas the difference after 2 weeks storage is still slight, there is an approximately 20% higher residual activity of alcohol dehydrogenase after 12 months storage in the presence of 16 mM cNAD compared to a corresponding solution containing 16 mM NAD as the coenzyme.
Accordingly, the residual activity of alcohol dehydrogenase can be increased somewhat in samples that have been stored for 2 weeks at 2-8° C. by increasing the concentration of cNAD.

[5] = target: glucose dehydrogenase (GlucDH) (Bacillus subtilis, UniProt P12310); test: Stability of glucose dehydrogenase with coenzyme in a liquid phase at 50° C.; format: biochemical; details: 10 mg/ml GlucDH, 12 mg/ml coenzyme, pH 8.5
Description: FIGS. 9A and 9B are graphical illustrations of the stability of glucose dehydrogenase in the presence of NAD or cNAD in a liquid phase at 50° C. for a period of 4 days (FIG. 9A) or 14 days (FIG. 9B) with test conditions of 10 mg/ml GlucDH; 12 mg/ml NAD or cNAD; buffer: 0.1 M Tris, 1.2 M NaCl, pH 8.5; temperature 50° C.
After 95 hours at 50° C. the residual activity of glucose dehydrogenase in the presence of the native coenzyme NAD is […], whereas the residual activity of GlucDH in the presence of the artificial coenzyme cNAD is 75% (FIG. 9A). After 336 hours storage at 50° C. the residual activity of the enzyme stabilized with NAD is now only about 1%; a residual activity of still about 70% is observed for the enzyme stored in the presence of cNAD. The corresponding SDS gels also show a change in the GlucDH bands in the presence of the native coenzyme NAD: new bands are seen at higher molar masses and there is a shift in the 30 kDa band.

Chain of glucose dehydrogenase (GlucDH) (P12310 whole entry): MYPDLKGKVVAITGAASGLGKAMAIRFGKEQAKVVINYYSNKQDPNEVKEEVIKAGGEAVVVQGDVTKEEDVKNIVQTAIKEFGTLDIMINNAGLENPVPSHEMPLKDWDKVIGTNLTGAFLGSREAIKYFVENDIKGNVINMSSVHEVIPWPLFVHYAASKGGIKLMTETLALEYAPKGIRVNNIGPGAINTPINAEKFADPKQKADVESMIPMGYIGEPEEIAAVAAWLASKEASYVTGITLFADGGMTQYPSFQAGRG
Chain of glucose dehydrogenase/NAD system (P12310 whole entry): as above
Chain of Glucose dehydrogenase mutant2 (P12310 whole entry E170K/A229V/A236S/Q252L): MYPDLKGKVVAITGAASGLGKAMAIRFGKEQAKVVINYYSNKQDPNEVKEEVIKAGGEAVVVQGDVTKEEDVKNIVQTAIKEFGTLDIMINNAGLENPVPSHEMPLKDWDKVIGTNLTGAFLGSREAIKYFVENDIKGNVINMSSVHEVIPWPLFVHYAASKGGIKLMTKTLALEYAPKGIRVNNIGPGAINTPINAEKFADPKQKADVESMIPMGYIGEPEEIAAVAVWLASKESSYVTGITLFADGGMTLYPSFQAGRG

SMILES | reflectance of the measured sample [1] | residual activity of alcohol dehydrogenase [2] | TM shift on binding of ligand [3] | ADH activity after 2 weeks at 2-8° C. ([4]; 2 weeks at 2-8° C.) | ADH activity after 3 months at 2-8° C. ([4]; 3 months at 2-8° C.) | ADH activity after 7.5 months at 2-8° C. ([4]; 7.5 months at 2-8° C.) | ADH activity after 10 months at 2-8° C. ([4]; 10 months at 2-8° C.) | ADH activity after 12 months at 2-8° C. ([4]; 12 months at 2-8° C.) | ADH activity % of weighed amount (initial value) ([4]; initial value) | residual activity of glucose dehydrogenase ([5]; 95 hours at 50° C.) [%] | residual activity of glucose dehydrogenase ([5]; 336 hours at 50° C.)
CC[n+]1c2ccccc2nc2c(OCCCC(=O)O)cccc21.O=S(=O)([O-])C(F)(F)F [1-(3-carboxy-propoxy)-5-ethylphenazinium-trifluoromethane sulfonate] | about 20% | – | – | – | – | – | – | – | – | – | –
NC(=O)c1ccc[n+]([C@@H]2O[C@H](COP(=O)([O-])OP(=O)(O)OC[C@H]3O[C@@H](n4cnc5c(N)ncnc54)[C@H](O)[C@@H]3O)[C@@H](O)[C@H]2O)c1 [NAD, nicotinamide adenine dinucleotide, reference compound] | – | about 6% | more than 1.5 °C | 96.9 % of initial value | 92.1 % of initial value | 80.2 % of initial value | 70.3 % of initial value | 60.5 % of initial value | 85.2 % of weighed amount | > 5 | about 1%
Cl.O=Nc1ccc(N(CO)CO)cc1 [[(4-nitroso-phenyl)imino]dimethanol hydrochloride] | about 20% | – | – | – | – | – | – | – | – | – | –
